What was measured:
[1] = test system: IL-6 levels in 3T3-L1 cells; conditions: 3T3-L1 cells after stimulation with TNFα; cited from earlier work
[2] = test system: Interleukin-6 (IL-6) secretion in C2C12 myotubes; assay: IL-6 release from cytomix (CTX)-inflamed C2C12 myotubes (ELISA of culture media); assay type: cell-based, mouse; conditions: for Impact on the release of IL-6 (significance): FIG. 3
Procedure: We first studied what is the lowest non-functional dose of Urolithin A in the context of cytokine-mediated muscle cell inflammation. For this, we exposed C2C12 myotubes to increasing doses of Urolithin A within a range of 1.56 uM to […] for 24 hours, and then induced inflammation for an additional 24 hours by applying to cells a mix of pro-inflammatory cytokines (Cytomix, abbreviated CTX). One set of cells were left untreated, indicated by the first bar (CTX−, UA−). One set of cells were treated with CTX but not Urolithin A (second bar, CTX+, UA−). At the end of the study, we measure the concentration of the proinflammatory biomarker Interleukin 6 (IL-6) released in the cell culture media.
Based on the literature we used concentrations of ERGO at two low doses—potentially non-functional—i.e. 4 uM and 20 uM. […] As for the UA experiment in FIG. 1, we treated C2C12 with ERGO at these […] doses for 24 hours, followed by treatment with CTX for additional 24 hours.
For this combination experiment, C2C12 were treated without CTX, with CTX alone and with CTX plus either UA alone (6.25 uM), ERGO alone (both 20 uM and 100 uM) and UA plus ERGO 20 uM and UA+ERGO 100 uM.
C2C12 Myoblasts purchased from the American Type Culture Collection (ATCC; ref. CRL-1772) were seeded at 8000 cells per well in a 96 well plate (Greiner) using a DMEM Glutamax 4.5 g D-glucose (Gibco, ref 31966021) supplemented with FBS 10% (PanBiotech, ref P190902), 1% PenStrep (Biowest, Nuaill6, France) and 1% Hepes (Biowest). Cells were then differentiated for 6 days using a differentiation medium (DMEM Glutamax 4.5 g D-glucose (Gibco, ref 31966021), 2% Horse serum (Thermofisher, ref 160501229) 1% PenStrep and 1% Hepes). All our media were sterilized with a 0.45 μm filter unit (VWR). After 4 days of the differentiation cells were treated for 24 h with 1) Urolithin A (UA), Ergothieoneine (ERGO, MedChem Express HY-N1914) or a combination of the two at the indicated doses. Cytokine mix (“cytomix”) was added at day 5 in addition of the previous treatment for another 24 h, cytokines were respectively used at 5 ng (mIFN-γ (Roche ref.11276905001), TNF-α (Peprotech ref. 300-01A) and IL-β (Proteintech ref. 200-011B)). The medium was collected and an ELISA for Interleukin-6 were performed following the instruction provided by the supplier (Proteintech ref. KE10007). Finally, the absorbance at a wavelength of 450 nm was measured using a microplate plate reader (Fluostar Optima, BMG Labtech).

[3] = test system: IL-6 levels in stressed C2C12 cells; conditions: cited from earlier work
[4] = test system: Interleukin-6 (IL-6) secretion in human dermal fibroblasts (nHDF); assay: IL-6 in supernatant of cytokine mix-treated normal human dermal fibroblasts (nHDF) (ELISA); assay type: cell-based
Procedure: A dose of 0.025 ng/ml of Cytokines mix was applied to induce inflammation, measured by quantifying the levels of the pro-inflammatory cytokine interleukin 6 (IL-6) in the cell culture supernatant. For the experiment, cells were first pre-treated with either i) urolithin A 2.5 uM, ii) Zinc at 100 uM, iii) a combination of urolithin A 2.5 uM and Zinc 100 uM, iv) or DMSO as control for 24 h. Then cells were co-treated with both CTX and either urolithin A or Zinc alone or in combination, as above. After 24 h, IL-6 was measured in the cell supernatant to assess the ability of Urolithin A and Zinc to reduce Cytokines-induced inflammation.
Normal Human dermal fibroblasts (nHDF) purchased from Promocell (ref. C-12302) were seeded at 6000 cells per well in a 96 well plate (Greiner) using a DMEM Glutamax 1 g D-glucose (Gibco, ref 21885108) supplemented with FBS 10% (PanBiotech, ref P30-3033), 1% PenStrep (Biowest) and 1% Hepes (Biowest). All media were sterilized with a 0.45 μm filter unit (VWR). The day after the seeded cells were treated for 24 h with 1) Urolithin A (UA) resuspended in DMSO, Zinc gluconate (MedChemExpress Ref. HY-W145499) or a combination of the two at the indicated doses.Cytokine mix (“cytomix”) was added in addition of the previous treatment for another 24 h, cytokines were used equally for a total and final concentration of 0.025 ng/ml (mIFN-g (roche ref.11276905001), TNF-α (Peprotech ref. 300-01A) and IL-b (Proteintech ref. 200-011B)). The medium was collected and an ELISA for Interleukin-6 were performed following the instruction provided by the supplier (Proteintech ref. KE10007). Finally, the absorbance at a wavelength of 450 nm was measured using a microplate plate reader (Fluostar Optima, BMG Labtech). IL-6 data were finally normalized over cell number, calculated with a cell viability assay (Promega, ref. G7571).

C[N+](C)(C)[C@@H](Cc1c[nH]c(=S)[nH]1)C(=O)[O-] [ERGO, ergothioneine]
Effect on IL-6 levels [1]: reduce IL-6 levels | Percent change in IL-6 vs CTX alone ([2]; ERGO 20 uM, 24 h, then CTX further 24 h, C2C12 myotubes): +1.2% | Percent change in IL-6 vs CTX alone ([2]; ERGO 100 uM, 24 h, then CTX further 24 h, C2C12 myotubes): −28% | Impact on IL6 (significance) ([2]; ERGO 100 uM, CTX): significant reduction | Impact on the release of IL-6 (significance) ([2]; ERGO alone 20 uM, CTX): did not significantly impact | Only dose leading to a significant decrease in CTX-induced IL-6 secretion ([2]; ERGO tested at 4 uM, 20 uM and 100 uM, FIG. 2): 100 µM | Effect on IL-6 levels [3]: reduce IL-6 levels

O=c1oc2cc(O)ccc2c2ccc(O)cc12 [UA, Urolithin A]
First dose at which UA did not exert a significant reduction in IL-6 (sub-functional dose) ([2]; C2C12 myotubes, CTX, FIG. 1): 6.25 µM | Effect on IL-6 release of CTX inflamed cells ([2]; UA 1.56 uM to 50 mM, 24 h, then CTX 24 h, FIG. 1): dose dependent decrease | Percent change in IL-6 vs CTX alone ([2]; UA 6.25 uM, 24 h, then cytomix (CTX) further 24 h, C2C12 myotubes): −5.2% | Impact on the release of IL-6 (significance) ([2]; UA alone 6.25 uM, CTX): did not significantly impact | % reduction IL-6 ([4]; CTX vs. CTX + UA 2.5 uM, nHDF): −25%

Zinc gluconate
% reduction IL-6 ([4]; CTX vs. CTX + Zinc 100 uM, nHDF): −29.6% | Relative Change (%) Compared to CTX ([4]; Zinc 100 uM, CTX 0.025 ng/ml, IL-6 in nHDF supernatant): −29.57% | Reduction of CTX-mediated increase of IL-6 ([4]; Zinc 100 uM, nHDF): 29.6%
